Experimental data: patent US5475132A, “Antifungal agents based on amides containing a phenyl group” (Rhone-Poulenc Agrochimie, priority 1988, dated 1995)

test system: Phytophthora citrophthora; test: Example B3: action on phytopathogenic soil fungi, growth on agar in Petri dishes; type: cell-based; conditions: 120 h, 30 ppm, agar medium, 22° C., 5 days, read-out: inhibition of the development of the fungus

Compound	inhibition at 30 ppm
COc1ccc(-c2c(C(=O)N3CCOCC3)sc3ccc(I)cc23)cc1OC [Compound 101, 2-(4-morpholinocarbonyl)-5-iodo-3-(3,4-dimethoxyphenyl)benzothiophene]	≥ 80%
COc1ccc(-c2c(C(=O)N3CCOCC3)sc3ccc(NC(=O)c4ccc(Cl)cc4)cc23)cc1OC [Compound 102, 2-(4-Morpholinocarbonyl)-5-(4-chlorobenzoylamino)-3-(3,4-dimethoxyphenyl)benzothiophene]	≥ 80%
COc1ccc(-c2c(C(=O)N3CCOCC3)sc3ccc([N+](=O)[O-])cc23)cc1OC [Compound 104, 2-(4-Morpholinocarbonyl)-5-nitro-3-(3,4-dimethoxyphenyl)benzothiophene]	≥ 80%
C=C(C)c1ccc2sc(C(=O)N3CCOCC3)c(-c3ccc(OC)c(OC)c3)c2c1 [Compound 105, 2-(4-Morpholinocarbonyl)-5-(propen-2-yl)-3-(3,4-dimethoxyphenyl)benzothiophene]	≥ 80%
CCN(CC)C(=O)c1sc2ccccc2c1-c1ccc(OC)c(OC)c1 [Compound 107, 2-(N,N-Diethylcarboxamide)-3-(3,4-dimethoxyphenyl)benzothiophene]	≥ 80%
COc1ccc(C2=C(C(=O)N3CCOCC3)C(O)c3ccccc32)cc1OC (stereo not shown) [Compound 110, 1-(3,4-Dimethoxyphenyl)-2-morpholinocarbonyl-3-hydroxyindene]	≥ 80%
COc1ccc2c(c1)CC(C(=O)N1CCOCC1)=C2c1ccc(OC)c(OC)c1 [Compound 111, 2-Morpholinocarbonyl-3-(3,,4-dimethoxyphenyl)-6-mehoxyindene]	≥ 80%
COc1ccc(C2=C(C(=O)N3CCOCC3)Cc3cc(OC)c(OC)cc32)cc1OC [Compound 112, 2-Morpholinocarbonyl-3-(3,4-dimethoxyphenyl)-5,6-methoxyindene]	≥ 80%
COc1ccc(-c2c(C(=O)N3CCOCC3)sc3ccc(Cl)cc23)cc1OC [Compound 113]	≥ 80%
COc1ccc(-c2c(C(=O)N3CCOCC3)sc3ccc(Br)cc23)cc1OC [Compound 114]	≥ 80%
COc1ccc(-c2c(C(=O)N3CCOCC3)sc3ccc(NC(C)=O)cc23)cc1OC [Compound 115]	≥ 80%
COc1ccc(-c2c(C(=O)N3CCOCC3)sc3ccc(NC(=O)C(F)(F)F)cc23)cc1OC [Compound 116]	≥ 80%
COc1ccc(-c2c(C(=O)N3CCOCC3)sc3ccc(F)cc23)cc1OC [Compound 117]	≥ 80%
COc1ccc(-c2c(C(=O)N3CCOCC3)sc3ccccc23)cc1OC [Compound 118]	≥ 80%
COc1ccc(-c2c(C(=O)N3CCOCC3)sc3c(N)cccc23)cc1OC [Compound 121]	≥ 80%
COc1ccc(-c2c(C(=O)N3CCOCC3)sc3c(F)cccc23)cc1OC [Compound 122]	≥ 80%
COc1ccc(-c2c(C(=O)N3CCOCC3)sc3c(Br)cccc23)cc1OC [Compound 123]	≥ 80%
COc1ccc(-c2c(C(=O)N3CCOCC3)sc3c(Cl)cccc23)cc1OC [Compound 124]	≥ 80%
COc1ccc(-c2c(C(=O)N3CCOCC3)sc3cc(Cl)ccc23)cc1OC [Compound 125]	≥ 80%
COc1ccc(-c2c(C(=O)N3CCOCC3)sc3c(-c4ccccc4)cccc23)cc1OC [Compound 126]	≥ 80%
COc1ccc(-c2c(C(=O)N3CCOCC3)sc3c(C)cccc23)cc1OC [Compound 127]	≥ 80%
COc1ccc(-c2c(C(=O)N3CCOCC3)sc3cccc(Cl)c23)cc1OC [Compound 128]	≥ 80%
COc1ccc(-c2c(C(=O)N3CCOCC3)sc3cccc(F)c23)cc1OC [Compound 129]	≥ 80%
COc1ccc(-c2c(C(=O)N3CCOCC3)sc3c(NC(=O)C(F)(F)F)cccc23)cc1OC [Compound 131]	≥ 80%

Compound	inhibition at 30 ppm
COc1ccc(-c2c(C(=O)N3CCOCC3)sc3c(NC(C)=O)cccc23)cc1OC [Compound 132]	≥ 80%
COc1ccc(-c2c(C(=O)N3CCOCC3)sc3ccc(C(F)(F)F)cc23)cc1OC [Compound 133]	≥ 80%
COc1ccc(-c2c(C(=O)N3CCOCC3)sc3ccc(-c4ccsc4)cc23)cc1OC [Compound 134]	≥ 80%
COc1ccc(-c2c(C(=O)N3CCOCC3)sc3ccc(-c4ccccc4)cc23)cc1OC [Compound 135]	≥ 80%
COc1ccc(-c2c(C(=O)N3CCOCC3)oc3ccc([N+](=O)[O-])cc23)cc1OC [Compound 136]	≥ 80%
COc1ccc(-c2c(C(=O)N3CCOCC3)oc3ccccc23)cc1OC [Compound 137]	≥ 80%
COc1ccc(-c2c(C(=O)N3CCOCC3)n(C)c3ccc([N+](=O)[O-])cc23)cc1OC [Compound 141]	≥ 80%
COc1ccc(C2=C(C(=O)N3CCOCC3)Cc3cc(OC)c(OC)cc32)cc1 [Compound 149]	≥ 80%
CCN(C)C(=O)c1sc2ccccc2c1-c1ccc(OC)c(OC)c1 [Compound 150]	≥ 80%
COc1ccc(-c2c(C(=O)N3CCCCC3)sc3ccccc23)cc1OC [Compound 153]	≥ 80%
COc1ccc(-c2c(C(=O)N3CCCC3)sc3ccccc23)cc1OC [Compound 154]	≥ 80%
COc1ccc(-c2c(C(=O)N(C)C)sc3ccccc23)cc1OC [Compound 155]	≥ 80%
COc1ccc(-c2c(C(=O)N(C)CCO)sc3ccccc23)cc1OC [Compound 156]	≥ 80%
COc1ccc(-c2c(C(=O)N3CCCCC3CO)sc3ccccc23)cc1OC (stereo not shown) [Compound 157]	≥ 80%
COCCN(C)C(=O)c1sc2ccccc2c1-c1ccc(OC)c(OC)c1 [Compound 158]	≥ 80%
COCC1CCCN1C(=O)c1sc2ccccc2c1-c1ccc(OC)c(OC)c1 (stereo not shown) [Compound 163]	≥ 80%
COc1ccc(-c2c(C(=O)N3CCCC(O)C3)sc3ccccc23)cc1OC (stereo not shown) [Compound 164]	≥ 80%
COc1ccc(-c2c(C(=O)N3CCCC(OC)C3)sc3ccccc23)cc1OC (stereo not shown) [Compound 166]	≥ 80%
CCN(C)C(=O)c1sc2ccc(F)cc2c1-c1ccc(OC)c(OC)c1 [Compound 167]	≥ 80%
COCCN(C)C(=O)c1sc2ccc(F)cc2c1-c1ccc(OC)c(OC)c1 [Compound 169]	≥ 80%
COc1ccc(-c2cc(-c3ccc(F)cc3)ccc2C(=O)N2CCOCC2)cc1OC [Compound 201, 2-(3,4-Dimethoxyphenyl)-4-(4-fluorophenyl)-1-morpholinocarbonylbenzene]	≥ 80%
COc1ccc(-c2cc(-c3ccccc3)ccc2C(=O)N2CCOCC2)cc1OC [Compound 202]	≥ 80%
COc1ccc(-c2cc(-c3ccc(C)cc3)ccc2C(=O)N2CCOCC2)cc1OC [Compound 203]	≥ 80%
COCCN(C)C(=O)c1ccc(Br)cc1-c1ccc(OC)c(OC)c1 [Compound 204]	≥ 80%

Compound	inhibition at 30 ppm
CCN(CC)C(=O)c1ccc(Br)cc1-c1ccc(OC)c(OC)c1 [Compound 205]	≥ 80%
CCN(C)C(=O)c1ccc(Br)cc1-c1ccc(OC)c(OC)c1 [Compound 206]	≥ 80%
COc1ccc(-c2cc(Cl)ccc2C(=O)N2CCOCC2)cc1OC [Compound 208]	≥ 80%
CCN(C)C(=O)c1ccc(Cl)cc1-c1ccc(OC)c(OC)c1 [Compound 209]	≥ 80%
COCCN(C)C(=O)c1ccc(Cl)cc1-c1ccc(OC)c(OC)c1 [Compound 210]	≥ 80%
CCN(CC)C(=O)c1ccc(Cl)cc1-c1ccc(OC)c(OC)c1 [Compound 211]	≥ 80%
C=C(C)c1ccc(C(=O)N(C)CC)c(-c2ccc(OC)c(OC)c2)c1 [Compound 212]	≥ 80%
C=C(C)c1ccc(C(=O)N(C)CCOC)c(-c2ccc(OC)c(OC)c2)c1 [Compound 213]	≥ 80%
C=C(C)c1ccc(C(=O)N(CC)CC)c(-c2ccc(OC)c(OC)c2)c1 [Compound 214]	≥ 80%
CCN(C)C(=O)c1ccc(-c2ccc(C)cc2)cc1-c1ccc(OC)c(OC)c1 [Compound 215]	≥ 80%
COc1ccc(-c2cc(-c3ccc(C)cc3)ccc2C(=O)N(C)CCO)cc1OC [Compound 216]	≥ 80%
COc1ccc(-c2cc(-c3ccc(C)cc3)ccc2C(=O)N(C)C)cc1OC [Compound 217]	≥ 80%
COc1ccc(-c2cc(Br)ccc2C(=O)N2CCOCC2)cc1OC [Compound 222]	≥ 80%
COc1ccc(-c2c(Br)cccc2C(=O)N2CCOCC2)cc1OC [Compound 223]	≥ 80%
O=C(c1ccc(Br)cc1-c1ccc2c(c1)OCO2)N1CCOCC1 [Compound 224]	≥ 80%
CCN(C)C(=O)c1ccc(-c2ccc(F)cc2)cc1-c1ccc2c(c1)OCO2 [Compound 228]	≥ 80%
O=C(c1ccc(-c2ccc(F)cc2)cc1-c1ccc2c(c1)OCO2)N1CCOCC1 [Compound 229]	≥ 80%
CCN(C)C(=O)c1ccc(-c2ccc(C)cc2)cc1-c1ccc2c(c1)OCO2 [Compound 230]	≥ 80%
Cc1ccc(-c2ccc(C(=O)N3CCOCC3)c(-c3ccc4c(c3)OCO4)c2)cc1 [Compound 231]	≥ 80%
COc1ccc(-c2ccc(C(=O)N3CCOCC3)c(-c3ccc(OC)c(OC)c3)c2)cc1OC [Compound 234]	≥ 80%
COc1ccc(-c2cc(C=C(C)C)ccc2C(=O)N2CCOCC2)cc1OC [Compound 235]	≥ 80%
C=C(C)c1ccc(C(=O)N2CCOCC2)c(-c2ccc(OC)c(OC)c2)c1 [Compound 236]	≥ 80%
COc1ccc(-c2cc(-c3ccc(Cl)cc3)ccc2C(=O)N2CCOCC2)cc1OC [Compound 237]	≥ 80%
COc1ccc(-c2cc(-c3ccsc3)ccc2C(=O)N2CCOCC2)cc1OC [Compound 238]	≥ 80%

same assay, conditions: 120 h, read-out: inhibition of the development of the fungus

Compound	inhibition at 30 ppm
COc1ccc(-c2c(C(=O)N3CCC(=O)CC3)sc3ccccc23)cc1OC [Compound 162]	≥ 80%
